Laboratory results taken from patent US20170173114A1, “METHODS AND COMPOSITIONS FOR INDUCTION OF UCP1 EXPRESSION” (Joslin Diabetes Center, Inc., priority 2014, published 2017).
“Also recorded” adds a separate entry of the source. Blank lines part the entries; values can stand above or below the compound they belong to.

Experiments:
UCP1 = UCP1 mRNA expression (Q-RT-PCR) in WT-1 brown preadipocytes; assay type: cell-based, murine
Experimental: (§1) Total RNA was isolated with QIAzol lysis reagent (Qiagen, Valencia, Calif.) and purified by RNeasy Mini columns (Qiagen) following the manufacture's instructions. cDNA was prepared from total RNA using the Advantage RT-PCR kit (BD Biosciences, Palo Alto, Calif.) according to manufacturer's instructions. Diluted cDNA was used in a PCR reaction with SYBR Green Master Mix (Applied Biosystems, Foster City, Calif.) and primers specifically designed for detection of the gene of interest. PCR reactions were run in duplicate for each sample and quantitated in the ABI Sequence Detection System (Applied Biosystems). Data were expressed as arbitrary units after normalization to levels of expression of internal controls for each sample. Sequences of primers for specific genes are each obtained from the published literature or designed using publically available gene sequence databases. Unless otherwise indicated, gene expression data described in the examples below was obtained using QPCR.
The effect of FGF6 on differentiation of WT-1 murine brown preadipocytes was also examined. WT-1 cells can be induced to undergo brown adipocyte differentiation, characterized by lipid accumulation and expression of adipogenic and brown fat markers, as described above (Klein et al. (1999) J Biol Chem 274:34795; Tseng et al. (2005) Nat Cell Biol 7:601). WT-1 cells were treated with FGF6 in growth media (DMEM+10% FBS), a vehicle control (“control” or “C” referred to in FIGS. 3A-D), or induction media (“induction” or “I” referred to in FIGS. 3A-D) as described above for seven days. Following the treatment, cells were examined for the color of the culture media in combination with oil Red O staining, expression of adipogenic markers, expression of brown fat markers, immunofluorescent staining of cells with UCP1 and DPAI, and Western blot analysis to determine the presence of UCP1 and β-tubulin. The results are described in FIGS. 3A to 3D.
UCP1 mRNA expression in brown adipocyte cells was determined at FGF6 concentrations ranging from 0 to 300 ng/ml in the absence of induction cocktail.
In order to determine the length of time necessary to induce UCP1 expression upon exposure to of cells to FGF6, an experiment was performed whereby FGF6 was administered to brown preadipocytes at a concentration of 200 ng/ml and UCP1 expression was determined. FGF21 and a control were also used in the time course experiment. FGF21, a member of the endocrine FGF ligands that has been implicated in the browning of white fat (Fisher F. M. et al., Genes Dev. 26:271-281, 2012). […] FGF6 could acutely induce a significant increase of UCP1 expression as early as 4 hours after a 200 ng/ml dose, as described in FIG. 4B. At 24 hours, the fold-induction of UCP1 mRNA by FGF6 reached 700-fold higher than the untreated cells, as described in FIG. 4B.
To assess FGF6's role in the regulation of mitochondrial activity, FGF6 was stably expressed in WT-1 brown preadipocytes and 3T3-F442A white preadipocytes. Stable cells were generated by viral infection followed by drug selection.
FGF2, FGF6 and FGF9 were used at a dosage of 50 ng/mL, 100 ng/mL, 200 ng/mL or 300 ng/mL. FGF21 was used at the dosage of 50 ng/ml and 500 ng/mL. The concentration of BMP7 was 3.3 nM. RNA was isolated and UCP1 and PPARγ expression levels were evaluated by quantitative reverse transcription polymerase chain reaction (Q-RT-PCR) analysis after 24 hours (i.e., 1 day) (FIG. 14A), 2 days (FIG. 14B), 5 days (FIG. 14C) and 7 days (FIG. 14D) of treatment. All experiments were performed triplicate and the data are presented as mean+/−SEM.
FGF2, FGF6 and FGF9 were used at a dosage of 200 ng/mL. FGF21 was used at a dosage of 500 ng/mL. The concentration of BMP7 was 3.3 nM. mRNA was isolated and UCP1 and PPARγ expression levels were evaluated by quantitative reverse transcription polymerase chain reaction (Q-RT-PCR) analysis after 24 hours (i.e., 1 day), 2 days, 5 days and 7 days of treatment (FIG. 15). […]

UCP1 and PTGS2 = UCP1 and PTGS2 mRNA in WT-1 cells undergoing adipocyte differentiation; assay type: cell-based, murine; settings: after induction media; 200 ng/mL FGF or 3.3 nM BMP7, 2 days
Experimental: In a separate experiment investigating the ability of FGF proteins to induce UCP1 expression in cells undergoing adipocyte differentiation, WT-1 preadipocyte cells were differentiated by culturing in growth media supplemented with insulin (20 nM) and triiodothyronine (T3, 1 nM) for 3 days, followed by incubation in an induction media (growth medium supplemented 20 nM insulin, 1 nM T3, 0.5 mM isobutyl-methylxanthine, 5 μM dexamethasone) for 2 days. The cell were then exposed to BMP7 (3.3 nM) or 200 ng/mL of FGF2, FGF6 or, FGF9 in growth media supplemented with insulin (20 nM) and triodothyronine (T3, 1 nM) for 2 additional days. Cells were harvested and UCP1 and PTGS2 mRNA expression levels were determined according to the quantitative RT-PCR assay described above. Experiments were performed in triplicate and the data presented as mean+/−SEM.

[1] = tested on: PPARγ, aP2, FAS, PRDM16, PGC1α, CIDEA; experiment: Adipogenic and brown fat marker mRNA expression in WT-1 brown preadipocytes; assay type: cell-based, murine
Experimental: as §1, with “QPCR. […]” for “QPCR.”
FGF2, FGF6 and FGF9 were used at a dosage of 50 ng/mL, 100 ng/mL, 200 ng/mL or 300 ng/mL. […] RNA was isolated and UCP1 and PPARγ expression levels were evaluated by quantitative reverse transcription polymerase chain reaction (Q-RT-PCR) analysis after 24 hours (i.e., 1 day) (FIG. 14A), 2 days (FIG. 14B), 5 days (FIG. 14C) and 7 days (FIG. 14D) of treatment. […]

UCP1 protein = UCP1 protein in WT-1 cells (immunofluorescent staining, Western blot); assay type: cell-based, murine; settings: WT-1, 200 ng/mL with insulin 20 nM and T3 1 nM; relative to control cells
Experimental: (§2) Cells were harvested in lysis buffer (50 mM HEPES, 137 mM NaCl, 1 mM MgCl2, 1 mM CaCl2, 10 mM Na2P2O7, 10 mM NaF, 2 mM EDTA, 10% glycerol, 1% Igepal CA-630, 2 mM vanadate, 10 μg/ml of leupeptin, 10 μg/ml of aprotinin, 2 mM phenylmethylsulfonyl fluoride; pH 7.4). After lysis, lysates were clarified by centrifugation at 12,000×g for 20 min at 4° C., the amount of protein in the supernatants was determined by the Bradford Protein Assay (Bio-Rad Laboratories, Hercules, Calif.). Proteins were directly solubilized in Laemmli sample buffer. Equal amounts of lysates were separated by sodium dodecyl sulfate-polyacrylamide gel electrophoresis and transferred to Immobolin-P membranes. Membranes were blocked overnight at 4° C. and incubated with the indicated antibody for 2 hours at room temperature. Specifically bound primary antibodies were detected with peroxidase-coupled secondary antibody and enhanced chemiluminescence (ECL, Amersham Biosciences, Piscataway, N.J.).
The effect of FGF6 on differentiation of WT-1 murine brown preadipocytes was also examined. WT-1 cells can be induced to undergo brown adipocyte differentiation, characterized by lipid accumulation and expression of adipogenic and brown fat markers, as described above (Klein et al. (1999) J Biol Chem 274:34795; Tseng et al. (2005) Nat Cell Biol 7:601). […]

PTGS2 (COX2) = experiment: PTGS2 mRNA / COX2 protein expression in WT-1 brown preadipocytes; assay type: cell-based, murine
Experimental: as §1
as §2, with “Membranes were blocked overnight at 4° C. and incubated with the indicated antibody for 2 hours at room temperature.” left out
To determine if FGF4, FGF5, FGF6, FGF10, FGF16, FGF17, FGF18 or FGF20 induced either UCP1 mRNA or PTGS2 mRNA expression, murine brown preadipocyte WT-1 cells (Tseng et al., Nat. Cell. Biol. (2005) 7(6):601-611) were grown in growth media (DMEM-high glucose+10% FBS) supplemented with FGF4, FGF5, FGF6, FGF10, FGF16, FGF17, FGF18, FGF20 or buffer (control) in combination with insulin (20 nM) and triidothyronine (T3, 1 nM) for three days. All FGFs were used at a dosage of 200 ng/mL. mRNA was isolated and UCP1 and PTGS2 gene expression levels were evaluated by quantitative reverse transcription polymerase chain reaction (Q-RT-PCR) analysis. […]
To test the role of specific prostaglandins (PGs) in activating UCP1 expression, WT-1 brown adipocytes were pretreated with PGE2, PGI2 and FGF6 for 24 hours. mRNA expression levels of UCP1, PTGS2, LDHA, PDK1 and PKM2 were then measured.

FGF6 mRNA = FGF6 mRNA expression in adipose tissue of mice treated with β3-adrenergic agonist; assay type: in vivo, C57BL/6 mice; settings: intraperitoneal 1 mg/kg body weight for 10 days; relative to PBS control
Experimental: as §1
CL316,243 was administered by intraperitoneal injection to the mice at a dose of 1 mg/kg body weight for 10 days.

PGE2-EP4 receptor = target: T1, PGE2-EP4 receptor (Mus musculus, UniProt P32240); experiment: PGE2-EP4 receptor inhibitor effect on FGF6-induced UCP1 mRNA in WT-1 cells; assay type: cell-based, murine; settings: 10 uM, with FGF6 24 hours
T1 construct: endogenous in cells; host or cells: WT-1 murine brown preadipocytes
T1 sequence (P32240 whole entry): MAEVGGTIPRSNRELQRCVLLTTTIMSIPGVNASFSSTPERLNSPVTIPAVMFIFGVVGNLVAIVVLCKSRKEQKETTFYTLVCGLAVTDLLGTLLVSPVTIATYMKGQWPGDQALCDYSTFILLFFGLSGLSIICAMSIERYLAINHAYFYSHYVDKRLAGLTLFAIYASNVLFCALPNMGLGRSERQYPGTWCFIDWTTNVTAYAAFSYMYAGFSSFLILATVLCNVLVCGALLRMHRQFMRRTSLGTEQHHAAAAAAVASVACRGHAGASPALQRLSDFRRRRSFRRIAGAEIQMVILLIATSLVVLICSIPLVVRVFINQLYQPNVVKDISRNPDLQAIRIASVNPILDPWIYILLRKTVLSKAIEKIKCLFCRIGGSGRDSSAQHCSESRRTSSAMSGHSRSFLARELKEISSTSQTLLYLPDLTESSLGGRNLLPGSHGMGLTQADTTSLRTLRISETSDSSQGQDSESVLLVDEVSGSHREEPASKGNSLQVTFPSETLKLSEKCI
Experimental: The role of the PGE2-EP4 receptor was also examined. WT-1 brown adipocytes were pretreated with AH-23848 (Sigma Aldrich), a calcium salt which is an inhibitor of the PGE2-EP4 receptor. Following AH-23848 (“AH”) treatment of the WT-1 cells at concentrations of 0 uM and 10 uM, the cells were treated with FGF6 alone in growth media (DMEM+10% FBS), AH alone, or the combination of FGF6 and AH for 24 hours. UCP1 mRNA expression for each group was then determined.

[2] = 200 ng/mL with insulin and T3, three days
[3] = 50, 100 or 300 ng/mL with insulin and T3, three days, FGF1 effect at 300 ng/ml

Compound: FGF16: fibroblast growth factor 16
expression of UCP1 (UCP1; [2]): minimal expression

Compound: FGF2: fibroblast growth factor 2, recombinant human, R&D Systems
PTGS2 mRNA expression in cells undergoing adipocyte differentiation (UCP1 and PTGS2): able to induce
UCP1 mRNA expression in cells undergoing adipocyte differentiation (UCP1 and PTGS2): able to induce
PPARγ expression level, time course ([1]; 200 ng/mL with insulin and T3, 1, 2, 5, 7 days): very low levels of PPARγ
PPARγ expression level ([1]; 50-300 ng/mL with insulin and T3, 1, 2, 5 and 7 days): very low levels of PPARγ
UCP1 protein, immunofluorescent staining (UCP1 protein): significant levels of staining
UCP1 expression level (UCP1; 50-300 ng/mL with insulin and T3, 1, 2, 5 and 7 days, dose-responsive): very high levels of UCP1
UCP1 expression level, time course (UCP1; FGF2, FGF6, FGF9 200 ng/mL, FGF21 500 ng/mL, with insulin and T3, 1, 2, 5, 7 days): very high levels of UCP1

Compound: FGF1: fibroblast growth factor 1, recombinant human, R&D Systems
PTGS2 mRNA expression (PTGS2 (COX2); [3]): induced expression
UCP1 mRNA expression (UCP1; [3]): induced expression

Compound: C[C@H](Cc1ccc2c(c1)OC(C(=O)[O-])(C(=O)[O-])O2)NC[C@H](O)c1cccc(Cl)c1.[Na+].[Na+] [CL316,243]
FGF6 mRNA expression levels in interscapular BAT and subcutaneous WAT (FGF6 mRNA): increased

Compound: FGF20: fibroblast growth factor 20
PTGS2 mRNA expression relative to the control (PTGS2 (COX2); [2]): increased

effect of FGF6 on UCP1 expression in the presence of inhibitor (PGE2-EP4 receptor): reduced; also recorded: suppression
Compound: O=C(O)CC/C=C\CC[C@H]1[C@H](N2CCOCC2)C(=O)C[C@H]1OCc1ccc(-c2ccccc2)cc1 [AH-23848]
